# Tested on: participants with chronic migraine
# Assay: Same phase 3 study: patient-reported outcomes (MSQ v2.1, AIM-D, HIT-6, WPAI, PGI-C, treatment satisfaction, EQ-5D-5L)
# Type: in vivo, human
# Conditions: for Change from Baseline in HIT-6 total score at Week 12, LS Mean / Change from Baseline in HIT-6 total score at Week 12, LSMD Atogepant vs. Placebo / Change from Baseline in MSQ v2.1 Role Function - Restrictive Domain Score at Week 12, LS Mean / Change from Baseline in MSQ v2.1 Role Function - Restrictive Domain Score at Week 12, LSMD Atogepant vs. Placebo: Off-Treatment Hypothetical Estimand population
# Text: The MSQ v2.1 is a 14-item questionnaire designed to measure health-related quality of life impairments attributed to migraine in the past 4 weeks. It is divided into three domains: Role Function Restrictive assesses how migraines limit one's daily social and work-related activities; Role Function Preventive assesses how migraines prevent these activities; and the Emotional Function domain assesses the emotions associated with migraine. Participants respond to items using a 6-point scale ranging from “none of the time” to “all of the time.” Raw dimension scores are computed as a sum of item responses and rescaled to a 0 to 100 scale, where higher scores indicate better quality of life.
# The AIM-D (Activity Impairment in Migraine — Diary) is an 11-function daily diary measure that assesses the impact of migraine. It is comprised of two domains that evaluate performance of daily activities (PDA: 7 items) and physical impairment (PI: 4 items). […] The AIM-D was developed as an electronic daily diary with the same set of questions administered in headache and non-headache versions. Raw domain scores are rescaled to a 0 to 100 scale, where higher scores indicate greater impact of migraine.
# The HIT-6 (Headache Impact Test) is a 6-question assessment used to measure the impact headaches have on a participant's ability to function on the job, at school, at home, and in social situations. It assesses the effect that headaches have on normal daily life and the participant's ability to function. Responses are based on frequency using a 5-point scale ranging from “never” to “always.” The HIT-6 total score, which ranges from 36 to 78, is the sum of the responses—each of which is assigned a score ranging from 6 points (never) to 13 points (always)—with higher scores indicating larger impact due to headache. Yang et al., “Validation of the Headache Impact Test (HIT-6™) across episodic and chronic migraine”, Cephalalgia, 2011 February; 31(3): 357−367.
# Secondary endpoints included change from baseline in mean monthly headache days across the 12 week treatment period; change from baseline in mean monthly acute medication use days across the 12-week treatment period; at least a 50% reduction in mean monthly migraine days across the 12-week treatment period; change from baseline in MSQ v2.1 Role Function-Restrictive domain score at week 12; change from baseline in mean AIM-D monthly functioning and activity impairment score across the 12-week treatment period; and change from baseline in HIT-6 total score at week 12.
# FIG. 8 and Table 5 show the change from baseline in AIM-D Performance of Daily Activities at Weeks 1-4, 5-8, and 9-12 and across 12 weeks. FIG. 9 and Table 6 show change from baseline in WPAI Overall Work Productivity Loss at Weeks 1-4, 5-8, and 9-12. […] A graphical approach with weighted Bonferroni test procedure was used to control the overall type I error rate at the 2-sided α=0.05 level for key secondary endpoint comparisons between each atogepant dose vs placebo. For exploratory endpoints, nominal P values were provided without adjusting for multiplicity.
# Patient-reported outcome (PRO) measures included the Performance of Daily Activities (PDA) and Physical Impairment (PI) domains of the Activity Impairment in Migraine-Diary (AIM-D), and the 5-level European Quality of Life-5 Dimension (EQ-5D-5L) descriptive system and visual analogue scale (VAS), implemented via daily diary. Scores in each domain were transformed to a 0-100 scale with higher scores indicating a greater burden from migraine. Changes in PDA and PI scores and the proportion of participants achieving clinically meaningful within-patient change in the PDA domain (≥12.5 points) and PI domain (≥10 points) were compared between participants who received atogepant vs placebo. EQ-5D-5L measures 5 dimensions of QOL, including mobility, self-care, usual activities, pain/discomfort, and anxiety/depression. […]
# [1] = 30 mg BID, week 12, mITT, listed as atogepant
# [2] = 60 mg QD, week 12, mITT, listed as atogepant
# [3] = 60 mg, within the first 2 weeks
# [4] = both doses (30 mg BID, 60 mg QD), all time points
structure (smiles),measurement,setting,value
"C[C@@H]1[C@H](c2c(F)ccc(F)c2F)C[C@H](NC(=O)c2cnc3c(c2)C[C@@]2(C3)C(=O)Nc3ncccc32)C(=O)N1CC(F)(F)F [Atogepant, (S)—N—((3S,5S,6R)-6-methyl-2-oxo-1-(2,2,2-trifluoroethyl)-5-(2,3,6-trifluorophenyl)piperidin-3-yl)-2′-oxo-1′,2′,5,7-tetrahydrospiro[cyclopenta[b]pyridine-6,3′-pyrrolo[2,3-b]pyridine]-3-carboxamide]","Change from Baseline in HIT-6 total score at Week 12, LS Mean",30 mg BID,−8.47
same,"Change from Baseline in HIT-6 total score at Week 12, LSMD Atogepant vs. Placebo",30 mg BID,−3.30
same,"Change from Baseline in MSQ v2.1 Role Function - Restrictive Domain Score at Week 12, LS Mean",30 mg BID,24.74
same,"Change from Baseline in MSQ v2.1 Role Function - Restrictive Domain Score at Week 12, LSMD Atogepant vs. Placebo",30 mg BID,7.43
same,"Change from Baseline in WPAI Overall Work Productivity Loss, LSMD vs placebo","30 mg BID, Week 4",−12.69
same,"Change from Baseline in WPAI Overall Work Productivity Loss, LSMD vs placebo","30 mg BID, Week 8",−8.61
same,"Change from Baseline in AIM-D Performance of Daily Activities, LSMD vs placebo","30 mg BID, Weeks 1-4",−5.44
same,"Change from Baseline in AIM-D Performance of Daily Activities, LSMD vs placebo","30 mg BID, Weeks 5-8",−4.75
same,"Change from Baseline in AIM-D Performance of Daily Activities, LSMD vs placebo","30 mg BID, Weeks 9-12",−4.36
same,"Change from baseline in MSQ v2.1 role function restrictive domain score at week 12, LS Mean","30 mg BID, mITT",25.15
same,"Change from baseline in MSQ v2.1 role function restrictive domain score at week 12, LSMD Atogepant vs. Placebo","30 mg BID, mITT",7.96
same,"Change from baseline in mean monthly performance of daily activities domain score of the AIM-D across the 12-week treatment period, LS Mean","30 mg BID, mITT",−14.29
same,"Change from baseline in mean monthly performance of daily activities domain score of the AIM-D across the 12-week treatment period, LSMD Atogepant vs. Placebo","30 mg BID, mITT",−4.85
same,"Change from baseline in mean monthly physical impairment domain score of the AIM-D across the 12-week treatment period, LS Mean","30 mg BID, mITT",−12.11
same,"Change from baseline in mean monthly physical impairment domain score of the AIM-D across the 12-week treatment period, LSMD Atogepant vs. Placebo","30 mg BID, mITT",−4.19
same,"Change from Baseline in WPAI Overall Work Productivity Loss, LSMD vs placebo","30 mg BID, week 12",−7.94
same,"MSQ v2.1 Emotional Function domain score change from baseline, LSMD vs placebo","30 mg BID, week 12",6.36
same,"MSQ v2.1 Role Function-Preventive domain score change from baseline, LSMD vs placebo","30 mg BID, week 12",8.10
same,PGI-C responders,"30 mg BID, week 12, mITT",153/239
same,"PGI-C responders (much better or very much better), Percentage","30 mg BID, week 12, mITT",64.0%
same,"PGI-C responders, OR (95% CI) vs placebo","30 mg BID, week 12, mITT","3.36 (2.29, 4.94)"
same,"Satisfaction with study medication (satisfied or extremely satisfied), Percentage","30 mg BID, week 12, mITT",64.6%
same,Satisfaction with study medication responders,"30 mg BID, week 12, mITT",148/229
same,"Satisfaction with study medication, OR (95% CI) vs placebo","30 mg BID, week 12, mITT","2.67 (1.82, 3.91)"
same,"PGI-C responders (much better or very much better), Percentage",[1],64.0%
same,"Satisfaction with study medication (satisfied or extremely satisfied), Percentage",[1],64.6%
same,"Change from Baseline in HIT-6 total score at Week 12, LS Mean",60 mg QD,−7.83
same,"Change from Baseline in HIT-6 total score at Week 12, LSMD Atogepant vs. Placebo",60 mg QD,−2.66
same,"Change from Baseline in MSQ v2.1 Role Function - Restrictive Domain Score at Week 12, LS Mean",60 mg QD,23.09
same,"Change from Baseline in MSQ v2.1 Role Function - Restrictive Domain Score at Week 12, LSMD Atogepant vs. Placebo",60 mg QD,5.78
same,"Change from Baseline in WPAI Overall Work Productivity Loss, LSMD vs placebo","60 mg QD, Week 4",−15.26
same,"Change from Baseline in WPAI Overall Work Productivity Loss, LSMD vs placebo","60 mg QD, Week 8",−11.33
same,"Change from Baseline in AIM-D Performance of Daily Activities, LSMD vs placebo","60 mg QD, Weeks 1-4",−4.44
same,"Change from Baseline in AIM-D Performance of Daily Activities, LSMD vs placebo","60 mg QD, Weeks 5-8",−3.59
same,"Change from Baseline in AIM-D Performance of Daily Activities, LSMD vs placebo","60 mg QD, Weeks 9-12",−2.11
same,"Change from baseline in MSQ v2.1 role function restrictive domain score at week 12, LS Mean","60 mg QD, mITT",23.33
same,"Change from baseline in MSQ v2.1 role function restrictive domain score at week 12, LSMD Atogepant vs. Placebo","60 mg QD, mITT",6.15
same,"Change from baseline in mean monthly performance of daily activities domain score of the AIM-D across the 12-week treatment period, LS Mean","60 mg QD, mITT",−12.82
same,"Change from baseline in mean monthly performance of daily activities domain score of the AIM-D across the 12-week treatment period, LSMD Atogepant vs. Placebo","60 mg QD, mITT",−3.38
same,"Change from baseline in mean monthly physical impairment domain score of the AIM-D across the 12-week treatment period, LS Mean","60 mg QD, mITT",−10.63
same,"Change from baseline in mean monthly physical impairment domain score of the AIM-D across the 12-week treatment period, LSMD Atogepant vs. Placebo","60 mg QD, mITT",−2.71
same,participants achieving clinically relevant reduction with AIM-D PDA of ≥12.5,"60 mg QD, week 1",42.9%
same,participants achieving clinically relevant reduction with AIM-D PI of ≥10,"60 mg QD, week 1",43.7%
same,"AIM-D PDA change from baseline, LSMD vs placebo","60 mg QD, week 1, mITT",−5.83
same,"AIM-D PI change from baseline, LSMD vs placebo","60 mg QD, week 1, mITT",−4.12
same,"Change from Baseline in WPAI Overall Work Productivity Loss, LSMD vs placebo","60 mg QD, week 12",−9.64
same,"MSQ v2.1 Emotional Function domain score change from baseline, LSMD vs placebo","60 mg QD, week 12",6.81
same,"MSQ v2.1 Role Function-Preventive domain score change from baseline, LSMD vs placebo","60 mg QD, week 12",6.86
same,PGI-C responders,"60 mg QD, week 12, mITT",130/246
same,"PGI-C responders (much better or very much better), Percentage","60 mg QD, week 12, mITT",52.8%
same,"PGI-C responders, OR (95% CI) vs placebo","60 mg QD, week 12, mITT","2.16 (1.48, 3.15)"
same,"Satisfaction with study medication (satisfied or extremely satisfied), Percentage","60 mg QD, week 12, mITT",59.2%
same,Satisfaction with study medication responders,"60 mg QD, week 12, mITT",138/233
same,"Satisfaction with study medication, OR (95% CI) vs placebo","60 mg QD, week 12, mITT","2.16 (1.49, 3.15)"
same,"PGI-C responders (much better or very much better), Percentage",[2],52.8%
same,"Satisfaction with study medication (satisfied or extremely satisfied), Percentage",[2],59.2%
same,"EQ-5D-5L VAS score, LSMD vs placebo",[3],4.47
same,"mean EQ-5D-5L descriptive system score, LSMD vs placebo",[3],0.04
same,proportion meeting HIT-6 responder criteria (score reduction ≥5 points) vs placebo,"all time points and doses, nominal P<0.001",nominally significantly greater
same,WPAI activity impairment vs. placebo,[4],Nominally significant improvements
same,WPAI presenteeism vs. placebo,[4],Nominally significant improvements
same,WPAI absenteeism vs. placebo,"both doses (30 mg BID, 60 mg QD), weeks 4 and 12",Nominally significant improvements
same,HIT-6 scores vs placebo,"both doses, weeks 4 and 8, nominal P<0.001",nominally significant improvements

# — patent US20230321055A1, “PREVENTIVE TREATMENT OF MIGRAINE” (priority 2022, published 2023)
